Data as given in patent US6491922B1, “Methods and compounds for treating autoimmune and vascular disease” (Cornell Research Foundation, Inc., priority 1996, dated 2002).
Several values for one entry are separate records, joined by “and”; a condition that tells them apart may be missing. Equal values may be shown once. Entries after “also recorded” stand apart in the source; their conditions may differ. Read-outs that look alike come from different tables or passages of the source.

Tests used:
endothelial cells = experiment: Endothelial adhesion to monocytes (MM6) assay
Experimental: Endothelial cell were isolated from human umbilical veins by an established method as described. […] In all experiments, 2-4 passages of subcultured endothelial cells were used and were grown on fibronectin-precoated 96-well plates for 2-3 days prior to use.
On the day of the experiment, endothelial cells were treated with endotoxin (E. coli, J5, 10 ng/ml) for 4 h. MM6 (1×10^5 cells) were subsequently added to the endotoxin-stimulated endothelial cells. Monocyte adhesion was performed for 20 min at 37° C. Unbound MM6 cells were removed by washing (3×). Adhesion of MM6 onto endothelium was quantitated by counting the bound MM6 cells under a microscope. […] The values of triplicates were averaged, and variations between triplicates were <5%. […] For experiments to examine if LPG could inhibit endotoxin-mediated monocyte adhesion, the endothelial cells were first preincubated with LPG (2 μM) for 1-2 h at 37° C. prior to the addition of endotoxin.

IL-1β mRNA [1] = experiment: IL-1β mRNA stability with actinomycin D in THP-1 cells; format: cell-based, human; conditions: 2 μM LPG simultaneous with LPS 2 μg/ml, actinomycin D after 2 h
Experimental: THP-1 cells (10^7 cells/condition) were stimulated with 2 μg/ml LPS or 2 μg/ml LPS with 2 μM LPG at time 0 h. Actinomycin D (6 μg/ml) was added to all conditions 2 h later and cells were harvested by gentle scraping for extraction of total RNA at the designated time. The 2 h time point after LPS or LPS plus LPG treatment was used as the respective reference for comparison with residual IL-1β mRNA at the later time points. For each condition and time, the total RNA separated on agarose gel, transferred and immobilized on nylon membrane were probed with ^32P-labeled IL-1β cDNA or GAPDH cDNA.

IL-1β promoter = format: cell-based, human; conditions: for suppression of endotoxin-induced CAT activity: LPG 2 μM 1 h; for suppression of LPS-induced CAT activity: 2 μM LPG 2 h
[2] = tested on: murine nitric oxide synthase activity; experiment: Nitrite production (Griess assay) in RAW 264.7 cells; format: cell-based
Experimental: RAW 264.7 cells were treated with LPG 1 μM and simultaneously stimulated with endotoxin and mIFN-γ. Supernatants from each treatment condition were removed at 24, 48, and 72 hours, and nitrite production was measured by the Griess assay.
To determine whether LPG can alter NOS expression, a well characterized murine macrophage cell line, RAW 264.7 cells, were used to measure NOS activity. […] Because macrophages encounter LPG usually in the context of entry of the parasite, it was examined whether Leishmania promastigotes, upon entry into macrophages, transfer LPG onto the macrophage cell surfaces and inhibit nitrite production. L. donovani prosmastigotes (“Ld3”) within 15 minutes of attachment to human monocytes, THP-1 cells, or murine peritoneal macrcophages transferred LPG onto the surface of the macrophages, as determined by a monoclonal antibody against LPG and indirect fluorescent microscopy. Two hours after entering murine peritoneal macrophages, Ld3 promastigoes suppressed endotoxin- and IFN-γ induction of NOS activity; the inhibition was parasite dose dependent.

E-selectin = experiment: Endotoxin-induced E-selectin expression on endothelial cells (FACS); format: cell-based, human; conditions: LPG pretreatment 1 h
Experimental: Endothelial cells pretreated with LPG at indicated amounts for 1 h were subsequently challenged with endotoxin. Washed cells incubated with monoclonal antibody specific for E-selectin or ICAM-1 were counter stained with fluorescein labeled anti-murine antibody, fixed and analyzed by FACS.

NOS mRNA = format: cell-based, human; conditions: IFN-γ-primed macrophages; LPG 2 μM pretreatment; RT/PCR
GAPDH mRNA = experiment: GAPDH control transcript (Northern analysis, nuclear run-off); format: cell-based, human
U1 and ACH-2 cells = experiment: Cell viability and proliferation (bromo-deoxy-uridine incorporation) of HIV-infected cell lines; format: cell-based, human
TNF-α transcription = experiment: Nuclear run-on assay, TNF-α transcription; format: cell-based, human; conditions: LPG 1 μM pretreatment; LPS 1 μg/ml
[3] = tested on: HIV p24 antigen, ACH-2 cells; experiment: HIV p24 antigen production in chronically HIV-infected ACH-2 cells; format: cell-based; conditions: 72 h
Experimental: LPG, the major surface molecule of Leishmania, has macrophage deactivating functions. Based on the ability of LPG to suppress the generation of ROI and cytokine gene expression, we evaluated the potential that LPG may similarly suppress HIV production. FIGS. 27A-D illustrate the effect of 2 μM LPG pretreatment for 2 h on the induction HIV from chronically HIV-infected monocytic and T cell lines respectively, U1 and ACH-2 cells. LPG treatment of U1 cells for 72 h inhibited basal production of HIV p24 antigen at basal and induction in response to PMA, TNF-α and LPS by 90%, 82%, 60% and 66%, respectively (FIGS. 27A, B). The suppression of HIV p24 antigen production was time-dependent (FIG. 27B). […] The inhibition was also time-dependent. The results are the mean of 2 separate experiments and the SD was less than 10%.

IL-1β mRNA [4] = experiment: Northern analysis of IL-1β mRNA induction in THP-1 cells; conditions: for amount of IL-1β mRNA in response to LPS: LPS 2 μg/ml 4 h
Experimental: Human monocytes were cultured in endotoxin free complete medium as previously described. […] THP-1 cells were maintained in RPMI-1640 supplemented with 2 mM L-glutamine, 100 U/ml penicillin-streptomycin, 5×10^−5 M β-mercaptoethanol, and 10% heat-inactivated fetal bovine serum (FBS). For experiments to determine the effect of LPG, THP-1 cells (10×10^6 per condition) were washed with RPMI 1640 and resuspended in complete medium composed of RPMI-1640 supplemented with 2 mM L-glutamine, 100 U/ml penicillin and 100 μg/ml streptomycin. These cells were cultured in 24-well plates with or without 0.01 to 2 μM LPG (0.1 to 20 μg/ml) for different times either before (−h), simultaneously with (0 h) or after (+h) the addition of inducers of IL-1β (eg., LPS, TNF-α, or S. epidermidis). Peripheral blood monocytes enumerated after detachment using a rubber policeman were similarly treated or not with LPG and cultured with stimuli. Cell were stimulated with 0.1 to 3 μg/ml LPS, TNF-α (50 ng/ml), 25 to 50 ng/ml PMA for 4 to 24 h, or opsonized heat-killed S. epiderimidis at ratio of 10 particles per cell.
Cells treated with or without LPG and/or inducers of IL-1β were harvested by gentle scrapping using a rubber policeman and sedimented by centrifugation at 500 g for 5 minutes in a microfuge. Total RNA was extracted using RNA STAT-60 solution (TEL-TEST “B” Inc., Friendswood, Tex.), based on a single step method for RNA isolation (P. Chomczynski and N. Sacchi, “Single-step Method of RNA Isolation by Acid Guanidinium Thiocyanate-phenol-chloroform Extraction,” Anal. Biochem., 162:156-59 (1987), hereby incorporated by reference), and quantitated by spectrophotometry. Equal amount of total RNA (15-20 μg per sample) was denatured, loaded onto 1.2% agarose-formaldehyde gel, run for 4 h at 30 volts and subsequently transferred by capillary action onto nylon membrane (0.45 μm pore size, NYTRAN, S&S, Keene, N.H.). Membranes were prehybridized at 42° C. for 4 h in prehybridization buffer (50% formamide, 6×SSPE, and 0.5% SDS), and hybridized in hybridization buffer (50% formamide, 6×SSPE, and 5 SDS) containing 10-15×10^6 cpm of random-priming ^32p-labeled IL-1β cDNA (Boehringer Mannheim GmbH, Mannheim, Germany). […] Washed membranes were exposed to KODAK X-OMAT AR films for 24 to 72 h and to phosphor screens (Molecular Dynamics Ltd., Kent, Tenn.) for 24-28 h. Quantitative analysis of the specific bands was performed using Phosphor Imager Analyzer. […] All percent suppression of IL-1β mRNA values were normalized by the amount of GAPDH present in each condition which varied less than 10% between conditions because equivalent amounts of total RNA were loaded for electrophoresis.

[5] = tested on: DNA sequence from the −310 to −57 region of the IL-1β promoter; experiment: Gel shift assay of nuclear protein binding to IL-1β promoter DNA; format: cell-based, human; conditions: THP-1 cells treated with LPG; preliminary data

lipophosphoglycan [LPG]
inhibition of endotoxin-mediated monocyte adhesion (dose-dependent 0.01 μM to 2 μM) (endothelial cells; 2 μM LPG pretreatment, endotoxin 10 ng/ml 4 h): completely inhibiting
effect on IL-1β-mediated endothelial cell adhesion (endothelial cells; IL-1β 100 U/ml, n=4): lack of LPG inhibitory activity
inhibition of endotoxin-mediated monocyte adhesion (time-dependent) (endothelial cells; LPG 2 μM, 2 h pretreatment, endotoxin 10 ng/ml 4 h): completely abrogating
TNF-α-mediated endothelial adhesion to monocytes (endothelial cells; LPG plus TNF-α, TNF-α alone 1,750±100, basal 100±50, n=6): 1,650±130 cell/mm^2
minimal pretreatment time required for inhibition of endotoxin-mediated monocyte adhesion (endothelial cells; endothelial cells): 15 to 30 min
effect on TNF-α-mediated endothelial adhesion to monocytes (endothelial cells; n=6): did not affect
IC50 (endothelial cells; read-out: half-maximal inhibitory concentration, endotoxin-mediated monocyte adhesion): ~600 nM
enhancement of rate of IL-1β mRNA degradation (IL-1β mRNA [1]): approximately 30%
LPG's inhibitory activity on LPS-induced CAT activity (IL-1β promoter; IL-1β promoter deleted to −57): completely abrogated; also recorded: no LPG inhibitory activity
suppression of CAT activity (IL-1β promoter; IL-1β promoter truncated to −131): 7%+1% and 7%
suppression of endotoxin-induced CAT activity (IL-1β promoter; deletional mutant X2-HT-CAT (−3757 to −2729 linked to −131 to +11)): 8%+4% and 8%
suppression of endotoxin-induced CAT activity (IL-1β promoter; full-length −3757 to +11 construct (XT-CAT), n=5): 50%+5%
effect on endotoxin-activation of IL-1β promoter activity in presence of serum (IL-1β promoter; medium with 2.5% or 5% FBS, LPG 2 μM 2 h, LPS 2 μg/ml): suppresses; also recorded: similar
suppression of LPS-induced CAT activity (IL-1β promoter; plasmid with −310/+15 promoter sequence, LPS 2 μg/ml): approximately 40%
suppression of LPS-induced CAT activity (IL-1β promoter; plasmid with −680/+15 promoter sequence, LPS 2 μg/ml): approximately 40%
suppression of LPS-induced CAT activity (IL-1β promoter; plasmid with −1110/+15 promoter sequence, LPS 2 μg/ml): approximately 40%
effect on nitrite production ([2]; RAW 264.7, LPG 1 μM simultaneous with endotoxin and IFN-γ): inhibited the enhancement of nitrite production
reversal of the inhibition by higher amounts of agonists ([2]; higher amounts of endotoxin and IFN-γ): could not reverse
effect on endotoxin-mediated expression of E-selectin (E-selectin): strongly suppressed; also recorded: blockage or suppression
effect on M. tuberculosis-induction of NOS mRNA (NOS mRNA): suppressed
effect on constitutive transcription of GAPDH mRNA (GAPDH mRNA; THP-1, Northern analysis): not affected; also recorded: no effect
effect on GAPDH transcription (GAPDH mRNA; nuclear run-on assay (Example 35)): no effect
percentages of viable cells (U1 and ACH-2 cells; cells treated or not treated with LPG): 98%
effect on cell proliferation (bromo-deoxy-uridine incorporation) (U1 and ACH-2 cells; each of the stimulation conditions): did not alter
suppression of endotoxin-mediated TNF-α transcription (TNF-α transcription): −70%
inhibition of HIV p24 antigen production in response to LPS ([3]; 2 μM LPG pretreatment 2 h): 69%
inhibition of HIV p24 antigen production in response to PMA ([3]; 2 μM LPG pretreatment 2 h): 81%
inhibition of HIV p24 antigen production in response to TNF-α ([3]; 2 μM LPG pretreatment 2 h): 88%
inhibition of basal production of HIV p24 antigen ([3]; 2 μM LPG): 62%
effect on IL-1β mRNA expression in monocytes (IL-1β mRNA [4]; LPG added simultaneously with the endotoxin): exerted an inhibitory effect
effect of washing to remove LPG on LPG's ability to suppress LPS induction of IL-1β mRNA (IL-1β mRNA [4]; THP-1, 1 or 2 μM LPG 2 h, washed twice, then LPS 4 h): no effect
suppression of LPS induction of IL-1β mRNA (IL-1β mRNA [4]; THP-1, LPG 2 μM added between 2 h before to 1 h after LPS 2 μg/ml): greater than 90%
inhibition of TNF-α induced IL-1β mRNA (IL-1β mRNA [4]; THP-1, LPG 2 μM pretreatment 2 h, TNF-α 50 ng/ml, mean±SD, N=5): approximately 50%±10%
inhibition of S. epidermidis-induced IL-1β mRNA (IL-1β mRNA [4]; THP-1, LPG 2 μM pretreatment for 2 h, N=3): 30±10%
suppression of S. epidermidis-induced IL-1β mRNA (IL-1β mRNA [4]; THP-1, LPG 2 μM simultaneous with opsonized S. epidermidis, N=3): greater than 80±19%
suppression of PMA induction of IL-1β mRNA (IL-1β mRNA [4]; THP-1, LPG 2 μM, PMA 25 or 50 ng/ml, N=3): did not suppress
inhibitory activity on LPS induction of IL-1β mRNA (IL-1β mRNA [4]; THP-1, LPG 1 or 2 μM added 4 h before LPS 2 μg/ml): lost
effect on S. epidermidis-induced IL-1β mRNA (IL-1β mRNA [4]; THP-1, LPG 2 h after S. epidermidis induction): minimal to no demonstrable effect
suppression of IL-1β mRNA (IL-1β mRNA [4]; THP-1, LPG added +2 h after LPS stimulation): 70%
amount of IL-1β mRNA in response to LPS (IL-1β mRNA [4]; THP-1, pretreated 2 h with 1 μM LPG): lower amounts of IL-1β mRNA
amount of IL-1β mRNA in response to LPS (IL-1β mRNA [4]; THP-1, pretreated 2 h with 2 μM LPG): little or no IL-1β mRNA detected
maximum inhibition of IL-1β mRNA (dose-dependent) (IL-1β mRNA [4]; THP-1, pretreated 2 h with LPG 0.01 to 2.0 μM, LPS 0.1 to 3 μg/ml): greater than 90%
inhibition of endotoxin-mediated IL-1β mRNA production (IL-1β mRNA [4]; THP-1, pretreatment with LPG 2 μM, endotoxin 2 μg/ml): completely inhibited
induction of nuclear protein(s) binding to promoter DNA sequence [5]: induced the presence of a nuclear protein(s) that bound a DNA sequence derived from this region
